Measurements as given in PubChem BioAssay AID489041 (Sanford-Burnham Center for Chemical Genomics, 2010).
pIC50: −log10 of the molar value. The source made the active and inactive calls. No rule for the calls is given here.

Test system: HEK-293T NF-kB luciferase reporter counterscreen, luminescence
Experiment: NF-kB reporter inhibition in HEK-293T, dose response, counter-screen for T-cell antigen receptor NF-kB inhibitors, HEK-293T cells, luminescence (AID 489041)

SMILES	IC50	pIC50
CC(=O)O[C@H]1C(=O)[C@@]2(C)C([C@H](OC(=O)c3ccccc3)[C@]3(O)C[C@H](OC(=O)[C@H](O)[C@@H](NC(=O)c4ccccc4)c4ccccc4)C(C)=C1C3(C)C)[C@]1(OC(C)=O)CO[C@@H]1C[C@H]2O (some centres undefined)	> 80 µM (inactive)	
CCOc1cc(C(=O)N/N=C/C(Br)=C/c2ccccc2)cc(OCC)c1OCC		5.95
Cc1cc(C)c2nc(C)cc(N/N=C/c3ccc(O)cc3)c2c1		4.89
c1cc2c(cc1C1=NNC(=NC3CC3)SC1)OCCO2		5.63
Cc1ccc(C(=O)N/N=C/c2ccc([N+](=O)[O-])s2)cc1		5.36
CCCCCc1ccc(OCCCC[n+]2ccc(C)cc2)c(CCCCC)c1		5.23
COC(=O)c1ccc2nc(Nc3nc4c(F)cc(F)cc4s3)sc2c1		6.29
CCOC(=O)CC1CCCCN1C(=O)c1cc(COc2cccc3cnccc23)on1 (centres undefined)		5.74
CC(=O)Nc1ccc(S(=O)(=O)N2CCSc3ccccc32)cc1	21.3 µM (inactive)	
CCn1ncc(C2=NOC(C(=O)NCc3ccccc3)C2)c1C (centres undefined)		5.62
Cn1cc(C(=O)N/N=C/c2c(O)ccc3ccccc23)ccc1=O	> 80 µM (inactive)	
C[C@@H]1C=CC(=O)O[C@@H]1c1ccc(Cl)cc1	34 µM (inactive)	
COc1cccc(OC)c1C1=NCC(=O)Nc2c1oc1ccc(Br)cc21		5.48
CC(C)(C)C(=O)Nc1ccc(NC(=O)c2ccco2)nc1		6.57
Cc1ccc(C(=O)O/N=C(\N)c2ccccn2)c(Cl)c1		5.58
COc1cccc(/C=N/NC(=O)c2[nH]nc3c2CCc2ccccc2-3)c1O		6.68
COc1ccc(OC)c(-c2nnc3n2N=C(c2ccc(OC)c(OC)c2)CS3)c1		6.19
CCS(=O)(=O)c1ncc(Cl)c(C(=O)Nc2ccc(S(=O)(=O)N(C)c3ccccc3)cc2)n1	20.2 µM (inactive)	
C=C(C)COc1ccc(-c2n[nH]c(C)c2-c2ccc(OC)c(OC)c2)c(O)c1		5.03
CCOC(=O)N/N=C/c1c(C)nn(-c2cccc(C(F)(F)F)c2)c1Cl		5.05

SMILES	IC50	pIC50
Cc1ccc2c(c1)sc(-c1ccc(N(C)C)cc1)[n+]2C		6.06
CCc1c(C)nc2ncnn2c1NCCc1ccc(OC)cc1		5.52
CCN1/C(=C/C(C)=C/c2sc3ccccc3[n+]2CC)Sc2ccccc21		6.11
c1ccc(-c2cccc(-c3ccccn3)n2)nc1	> 80 µM (inactive)	
COc1ccc(Nc2ncnc3ccc(Br)cc23)c(OC)c1		4.92
CC(=O)O[C@H]1C(=O)[C@@]2(C)C([C@H](OC(=O)c3ccccc3)[C@]3(O)C[C@H](OC(=O)[C@H](O)[C@@H](NC(=O)Cc4ccccc4)c4ccccc4)C(C)=C1C3(C)C)[C@]1(OC(C)=O)CO[C@@H]1C[C@@H]2O (some centres undefined)	45.6 µM (inactive)	
COc1ccc(S(=O)(=O)/N=C2\C=C(Nc3ccc(O)cc3)C(=O)c3ccccc32)cc1		5.99
O=C(Nc1nc(-c2ccccc2)cs1)c1ccc(N2CCOCC2)c([N+](=O)[O-])c1		5.96
COc1ccc(NC(=O)/C(Cl)=C(/Cl)S(=O)Cc2ccc(Cl)cc2)cn1 (centres undefined)		5.12
CC(=O)O[C@@]12CO[C@@H]1C[C@H](O)[C@@]1(C)C(=O)[C@H](O)C3=C(C)[C@@H](OC(=O)[C@H](O)[C@@H](NC(=O)c4ccccc4)c4ccccc4)C[C@@](O)([C@@H](OC(=O)c4ccccc4)C12)C3(C)C (some centres undefined)	> 80 µM (inactive)	
O=C(COc1ccccc1-c1ccccc1)N/N=C/c1cccc2ccccc12		5.10
CCOc1ccc(-c2[nH]ncc2-c2ccc(OC)c(OC)c2)c(O)c1		4.98
Cc1ccc(/C=N/NC(=O)C2COc3ccccc3O2)s1 (centres undefined)	51.6 µM (inactive)	
COc1cc(C(=O)Nc2ccc3c(c2)CCN3C(C)=O)cc(OC)c1OC		5.32
COc1ccc(CCNc2nnc(Sc3nnnn3-c3ccccc3)s2)cc1OC		5.08
O=C(N/N=C\c1c(O)ccc2ccccc12)c1cncc(Br)c1		4.95
Cc1ccc(N2C(=O)c3cccc4c(N)ccc(c34)C2=O)c2cccnc12		> 6.80
CC1C/C(=C/c2ccncc2)C(=O)/C(=C/c2ccncc2)C1 (centres undefined)		5.24
CCOc1ccccc1C1CC(=O)Nc2cc3c(cc21)OCO3 (centres undefined)		5.21
